Measurements: US12263248B2, “Compounds and compositions for intracellular delivery of therapeutic agents” (ModernaTX, Inc., priority 2018, dated 2025)
Marks after values point to notes of the source that are not given here.

Assays:
[1] = Residual lipid levels in rat liver and spleen (UPLC-MS); type: in vivo; conditions: for % Lipid Remaining in liver, 48 h: 2 mpk, assuming 300 g rat and 15 g liver; for % remaining dose in liver, 48 h: intravenous, 2.0 mpk; for % dose remaining Rat liver tissue, 48 h: Sprague Dawley rat liver 48 h after 2 mg/kg bolus dose mRNA
In short: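 Rats received a single intravenous dose of lipid nanoparticle composition, and liver tissue was later collected to quantify residual lipid. Weighed tissue was homogenized in Milli-Q water (900 μL per 100 mg tissue) using an Omni probe homogenizer. 50 μL aliquots were mixed with 400 μL spiking solution, vortexed, centrifuged, and analyzed by UPLC on a C8 column with positive-mode ESI detection on a Sciex API5500 mass spectrometer.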

IP-10 = experiment: Cytokine induction in rats after intravenous administration; type: in vivo, rat; conditions: for IP-10: rats, 2.0 mpk, 6 hours, hEPO nanoparticle compositions; for IP-10 induction: rat, 48 hours after administration
Protocol: The expression of hEPO and cytokine induction in rats intravenously administered a nanoparticle composition at a dose of 2.0 mpk was measured at 6 h.
Table 19A summarizes the hEPO expression, IP-10 induction, liver and spleen levels, and alanine aminotransferase (ALT) and aspartate aminotransferase (AST) measured upon intravenous administration of formulations including Compounds 48, 49, and 50 to rat at 0.2 and 2 mpk and hEPO mRNA. hEPO concentrations were measured 6 hours after administration, while cytokine induction and liver and spleen levels were measured 48 hours after administration. hEPO and IP-10 concentrations are presented in pg/ml, while liver levels are provided in ng/g. ALT and AST levels are presented in international units.

[2] = Clinical chemistry and hematology in rat, 2 mpk i.v., 48 h; type: in vivo; conditions: intravenous, 48 h post dose
Protocol: Sample formulations of nanoparticle compositions including different lipids were administered intravenously to rat at a dose of 2 mpk. The expression of various clinical markers was evaluated at 48 h post dose and compared to that induced by administration of MC3 formulations or phosphate buffered saline (PBS).

hEPO mRNA = experiment: hEPO expression after intravenous administration to rats; type: in vivo, rat; conditions: for Lipid/MC3 hEPO conc. ratio 0.2 mpk / Lipid/MC3 hEPO conc. ratio 2 mpk: rats; for Lipid/MC3 hEPO expression: 6 hours after administration
In short: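 Rats dosed intravenously once with nanoparticle composition, 0.2 or 2.0 mpk, formulated by the standard MC3 method. Tail-vein blood sampled at 6 h or at time points from 0.25 to 48 h. hEPO measured by ELISA.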

[3] = Lipid clearance: lipid level in mouse liver tissue (LC-MS/MS); type: in vivo; conditions: for % dose remaining Mouse liver tissue, 24 h: CD-1 mouse liver 24 h after 0.5 mg/kg bolus dose mRNA, n = 5 ± S.D.; for original dose remaining in liver tissue 24 hours post dose: mice, intravenous
Protocol: Quantification of Lipid by LC-MS/MS: Liver samples were homogenized following addition of 19 eq. (w/v) of water (DF=20). Protein was precipitated and analyzed against calibration standards prepared in matching blank. Chromatographic separation and quantification was accomplished with a LC-MS/MS System. Samples were injected and separated via HPLC A triple-quadrupole MS/MS system operated in positive ion mode was used for signal detection.

[4] = Chemical stability of lipids in ethanol (lipid purity); type: physicochemical
Protocol: Ester linkages were previously reported to trigger metabolism by esterases in vivo. (See Fukami, T. et al. Drug Metab. Pharmacokinet. 2012, 27, 466-477, the content of which is incorporated by reference herein in its entirety). […] (See Maier M. A., Mol. Ther. 2013, 21, 1570-1578, the content of which is incorporated herein in its entirety) First, the chemical stability of the lipids was evaluated by measuring ethanol stability at room temperature and 37° C. (Table 39). […] LNPs formed with compound 138 were larger, with a surface pKa>7. […] Removal of one ester function (compound 136) afforded LNPs with improved physiochemical characteristics and lower LNP surface pKa.

[5] = rat, intravenous, 0.2 mpk, 6 hours
[6] = rat, intravenous, 2 mpk, 6 hours

| SMILES | % Lipid Remaining in liver, 48 h ([1]; rats) [%] | % remaining dose in liver, 48 h ([1]; rats) [%] | IP-10 (IP-10) [pg/mL] | hEPO expression (hEPO mRNA; rat, 6 h, 2 mpk, i.v.) [pg/mL] | Lipid/MC3 hEPO conc. ratio 0.2 mpk (hEPO mRNA; intravenous, 0.2 mpk, 6 hours) | Lipid/MC3 hEPO conc. ratio 2 mpk (hEPO mRNA; intravenous, 2 mpk, 6 hours) | % dose remaining Mouse liver tissue, 24 h [3] [%] | original dose remaining in liver tissue 24 hours post dose [3] | Lipid Purity ([4]; t = 0) [%] | Lipid Purity ([4]; t = 96 h, 25° C.) [%] | Lipid Purity ([4]; t = 96 h, 37° C.) [%] | further results |
| --- | --- | --- | --- | --- | --- | --- | --- | --- | --- | --- | --- | --- |
| CCCCCCCCCOC(=O)CCCCCCCN(CCO)CCCCCCCOC(=O)C(CCCCCCCC)CCCCCCCC [Compound 30, 7-((2-Hydroxyethyl)(8-(nonyloxy)-8-oxooctyl)amino)heptyl 2-octyldecanoate] | <0.01 | <1 | 214.5 | 1.63e+07 | 1.87 | 1.14 |  |  |  |  |  | Concentration Alanine aminotransferase [2]: 56; Concentration Aspartate aminotransferase [2]: 95; Concentration Lymphocytes [2]: 10408.5; Concentration Monocytes [2]: 877; Concentration Neutrophils [2]: 3195 |
| CCCCCCCCCOC(=O)CCCCCCCN(CCO)CCCCCCCC(=O)OCCCCCCCCC [Compound 138, Dinonyl 8,8′-((2-hydroxyethyl)azanediyl)dioctanoate] |  |  |  |  |  |  | 0 | no lipid detected | 97.59 | 98.64 | 97.82 |  |
| CCCCCCCCCOC(=O)CCCCCCCN(CCO)CCCCCCCC(=O)OC(CCCCCCCC)CCCCCCCC [Compound 18, Heptadecan-9-yl 8-((2-hydroxyethyl)(8-(nonyloxy)-8-oxooctyl)amino)octanoate] | 0.018 | <1 | 517.3 | 9.96e+06 |  | 0.81 | 0 | no lipid detected | 94.37 | 94.71 | 95.01 | % dose remaining Rat liver tissue, 48 h [1]: 0.02^e %; % lipid remaining in liver after 48 hours ([1]; liver): 0.018%; Lipid/MC3 hEPO expression (hEPO mRNA; 2 mpk dose to rat): 0.81; hEPO expression 0.25 h (hEPO mRNA; rat, intravenous, 0.2 mpk, 0.25 h): 20227 pg/mL; hEPO expression 0.5 h (hEPO mRNA; rat, intravenous, 0.2 mpk, 0.5 h): 20743 pg/mL; hEPO expression 1 h (hEPO mRNA; rat, intravenous, 0.2 mpk, 1 h): 194353 pg/mL; hEPO expression 2 h (hEPO mRNA; rat, intravenous, 0.2 mpk, 2 h): 238107 pg/mL; hEPO expression 4 h (hEPO mRNA; rat, intravenous, 0.2 mpk, 4 h): 514807 pg/mL; hEPO expression 8 h (hEPO mRNA; rat, intravenous, 0.2 mpk, 8 h): 915320 pg/mL; hEPO expression 24 h (hEPO mRNA; rat, intravenous, 0.2 mpk, 24 h): 412051 pg/mL; hEPO expression 48 h (hEPO mRNA; rat, intravenous, 0.2 mpk, 48 h): 52361 pg/mL |
| CCCCC/C=C\C/C=C\CCCCCCCCN(CCO)CCCCCCCC(=O)OC(CCCCCCCC)CCCCCCCC [Compound 6, Heptadecan-9-yl 8-((2-hydroxyethyl)((9Z,12Z)-octadeca-9,12-dien-1-yl)amino)octanoate] |  |  |  |  |  |  | 67 ± 9.8 | 67% | 93.80 | 93.21 | 94.29 |  |
| CCCCCCCCC(CC)OC(=O)CCCCCCCN(CCO)CCCCCCCC(=O)OC(CCCCCCCC)CCCCCCCC (stereo not shown) [Compound 49, heptadecan-9-yl 8-((2-hydroxyethyl)(8-oxo-8-(undecan-3-yloxy)octyl)amino)octanoate] | 12.6 |  |  |  | 4.13 | 3.28 |  |  |  |  |  | IP-10 induction (IP-10; 0.2 mpk): 66 pg/mL; IP-10 induction (IP-10; 2 mpk): 932 pg/mL; hEPO expression (hEPO mRNA; [5]): 3.17e+06 pg/mL; hEPO expression (hEPO mRNA; [6]): 3.04e+07 pg/mL |
| CCCCCCCCCOC(=O)CCCN(CCO)CCCCCCCC(=O)OC(CCCCCCCC)CCCCCCCC [Compound 26, Heptadecan-9-yl 8-((2-hydroxyethyl)(4-(nonyloxy)-4-oxobutyl)amino) octanoate] | 20 |  |  |  |  | 4.95 |  |  | 98.64 | 97.38 | 95.72 | % dose remaining Rat liver tissue, 48 h [1]: 20 ± 4.0^f %; parent amino lipid levels in the liver ([1]; Sprague Dawley rats, 48 h post dose): 20%; % lipid remaining in liver after 48 hours ([1]; liver): 20%; lipid levels in the liver after 48 hours ([1]; rats, i.v., dose response study): about 19%; Lipid/MC3 hEPO expression (hEPO mRNA; 2 mpk dose to rat): 4.95 |
| CCCCCCCCCN(CCO)CCCCCCCC(=O)OC(CCCCCCCC)CCCCCCCC [Compound 3, Heptadecan-9-yl 8-((2-hydroxyethyl)(nonyl)amino)octanoate] | 14 | 14.2 | 542 | 1.74e+07 | 2.41 | 1.21 |  |  |  |  |  | Concentration Alanine aminotransferase [2]: 53.5; Concentration Aspartate aminotransferase [2]: 87.5; Concentration Lymphocytes [2]: 12051; Concentration Monocytes [2]: 2103; Concentration Neutrophils [2]: 3388.5 |
| CCCCCCCCC(CCC)OC(=O)CCCCCCCN(CCO)CCCCCCCC(=O)OC(CCCCCCCC)CCCCCCCC (stereo not shown) [Compound 50, dodecan-4-yl 8-((8-(heptadecan-9-yloxy)-8-oxooctyl)(2-hydroxyethyl)amino)octanoate] | 15.9 |  |  |  | 3.41 | 3.03 |  |  |  |  |  | IP-10 induction (IP-10; 0.2 mpk): 20 pg/mL; IP-10 induction (IP-10; 2 mpk): 1065 pg/mL; hEPO expression (hEPO mRNA; [5]): 2.62e+06 pg/mL; hEPO expression (hEPO mRNA; [6]): 2.81e+07 pg/mL |
| CCCCCCCCC(C)OC(=O)CCCCCCCN(CCO)CCCCCCCC(=O)OC(CCCCCCCC)CCCCCCCC (stereo not shown) [Compound 48, decan-2-yl 8-((8-(heptadecan-9-yloxy)-8-oxooctyl)(2-hydroxyethyl)amino)octanoate] | 7.22 |  |  |  | 5.39 | 3.84 |  |  |  |  |  | % lipid remaining in liver after 48 hours ([1]; liver): 11.4%; IP-10 induction (IP-10; 0.2 mpk): 134 pg/mL; IP-10 induction (IP-10; 2 mpk): 970 pg/mL; Lipid/MC3 hEPO expression (hEPO mRNA; 0.2 mpk dose to rat): 5.39; Lipid/MC3 hEPO expression (hEPO mRNA; 2 mpk dose to rat): 3.84; hEPO expression (hEPO mRNA; [5]): 4.06e+06 pg/mL; hEPO expression (hEPO mRNA; [6]): 3.57e+07 pg/mL |
| CCCCCCCCCOC(=O)CCCCCCCN(CCO)CCCCCCCCCC(=O)OC(CCCCCC)CCCCCC [Compound 147, Tridecan-7-yl 10-((2-hydroxyethyl)(8-(nonyloxy)-8-oxooctyl)amino)decanoate] |  |  |  |  |  |  |  |  |  |  |  | % dose remaining, liver, 24 h ([1]; Table 19B, liver, 24 h): 0.00%; AUC (hEPO) (hEPO mRNA; Table 19B): 7.28e+07 pg·h/mL; Lipid/MC3 ([hEPO] ratio) (hEPO mRNA; Table 19B, relative to MC3): 3.69; Lipid/MC3 AUC (hEPO mRNA; Table 19B, relative to MC3): 3.94; [hEPO] (hEPO mRNA; Table 19B, species, dose and time not given): 5.45e+06 pg/mL |
| CCCCCC/C=C\COC(=O)CCCCCCCN(CCO)CCCCCCCC(=O)OC(CCCCCCCC)CCCCCCCC [Compound 24, Heptadecan-9-yl (Z)-8_((2-hydroxyethyl) (8-(non-2-en-1-yloxy)-8-oxooctyl)amino)octanoate] | 0.016 | <1 | 323.5 | 1.44e+07 | 1.75 | 1.01 |  |  |  |  |  | Concentration Alanine aminotransferase [2]: 51.5; Concentration Aspartate aminotransferase [2]: 90; Concentration Lymphocytes [2]: 14100; Concentration Monocytes [2]: 1834; Concentration Neutrophils [2]: 1790.5 |
| CCCCC/C=C\C/C=C\CCCCCCCCN(CCO)CCCCCCCC(=O)OCCCCCCCCC [Compound 136, Nonyl 8-((2-hydroxyethyl)((9Z,12Z)-octadeca-9,12-dien-1-yl)amino)octanoate] |  |  |  |  |  |  | 0 |  | 91.81 | 93.17 | 93.86 |  |
| CCCCCCCCC(CCCCCCCC)OC(=O)CCCCCCCN(CCO)CCCCCCCC(=O)OC(CCCCCCCC)CCCCCCCC [Compound 29, Di(heptadecan-9-yl) 8,8′-((2-hydroxyethyl)azanediyl)dioctanoate] |  |  |  |  |  |  | 68 ± 9.2 | 68% | 97.017 | 97.67 | 98.10 |  |
